In article PMC9235088, “Characterization of a new L-carnosine synthase mined from deep-sea sediment metagenome” (Microbial Cell Factories, 2022):

Tested on: T1, gene_236976 product (L-carnosine synthase, L-aminopeptidase)
T1 construct: codon-optimised synthetic gene in pET-26b (NcoI/XhoI), his6-tagged, E. coli BL21(DE3), Ni-agarose purified
Assay: HPLC of L-carnosine formed, Michaelis-Menten fit
Type: biochemical, metagenome: deep-sea sediment
Conditions: 100 mM β-AlaOMe, 0-400 mM L-histidine; assay buffer Na2CO3/NaHCO3 pH 10.0, 30 °C; read-out: L-histidine^b / Km
Description: HPLC of L-carnosine formed, Michaelis-Menten fit on gene_236976 product (L-carnosine synthase, L-aminopeptidase)

**Q.** How did the Km turn out when `N[C@@H](Cc1cnc[nH]1)C(=O)O` [L-histidine] was run?
**A.** 7.73 ± 0.29 mM
